Consider 16 compounds from PubChem BioAssay AID296 (DTP/NCI, 2004).

This assay relates to MX-1 breast xenograft, nude mice, tumor weight T/C. As to the kind of experiment: NCI In Vivo Anticancer Drug Screen. Data for tumor model Human Mammary Carcinoma MX-1 Xenograft (intrarenal inoculation) in NU/NU Swiss (nude) mice. As to conditions: endpoint: mean tumor weight change, higher = larger tumour. The essentials:
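Compound dosed to mice with transplantable tumor; vehicle group as control. Endpoint survival or tumour size, reported as T/C.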
(A xenograft is tissue or cells of one species grown in another, often human tumour cells in immunodeficient mice.)

Where [1] appears, read: dose: 600.0 mg/kg/injection, schedule: Q04DX003 (sc), vehicle: saline with Tween-80.
[2] abbreviates: dose: 2400.0 mg/kg/injection, schedule: Q04DX003 (sc), vehicle: saline with Tween-80.

Records with an inconclusive call do not appear.

For `c1cc[c]([Sn][c]2ccccc2)cc1`, the T/C runs as follows: (dose: 20.0 mg/kg/injection, schedule: Q01DX010 (sc), vehicle: saline) 112 % of control; (dose: 40.0 mg/kg/injection, schedule: Q01DX010 (sc), vehicle: saline) 84 % of control; (dose: 80.0 mg/kg/injection, schedule: Q01DX010 (sc), vehicle: saline) 74 % of control; (dose: 160.0 mg/kg/injection, schedule: Q01DX010 (sc), vehicle: saline) 115 % of control.

`BrC1CC(Br)c2c1c1c(c3c2C(Br)CC3Br)C(Br)CC1Br` (centres undefined): the T/C by setting is: (dose: 300.0 mg/kg/injection, schedule: Q04DX003 (sc), vehicle: water) 92 % of control; (dose: 600.0 mg/kg/injection, schedule: Q04DX003 (sc), vehicle: water) 104 % of control; (dose: 1200.0 mg/kg/injection, schedule: Q04DX003 (sc), vehicle: water) 120 % of control; (dose: 2400.0 mg/kg/injection, schedule: Q04DX003 (sc), vehicle: water) 50 % of control.

For `CC1c2ccccc2CC(CCN(C)C)c2ccccc21` (centres undefined), the T/C is, setting by setting: (dose: 9.37 mg/kg/injection, schedule: Q04DX003 (sc), vehicle: saline with Tween-80) 101 % of control; (dose: 12.5 mg/kg/injection, schedule: Q04DX003 (sc), vehicle: saline with Tween-80) 63 % of control; (dose: 18.75 mg/kg/injection, schedule: Q04DX003 (sc), vehicle: saline with Tween-80) 83 % of control; (dose: 25.0 mg/kg/injection, schedule: Q04DX003 (sc), vehicle: saline with Tween-80) 54 % of control; (dose: 37.5 mg/kg/injection, schedule: Q04DX003 (sc), vehicle: saline with Tween-80) 52 % of control; (dose: 50.0 mg/kg/injection, schedule: Q04DX003 (sc), vehicle: saline with Tween-80) 65 % of control. Besides, the T/C runs as follows: (dose: 75.0 mg/kg/injection, schedule: Q04DX003 (sc), vehicle: saline with Tween-80) 26 % of control; (dose: 100.0 mg/kg/injection, schedule: Q04DX003 (sc), vehicle: saline with Tween-80) 38 % of control; (dose: 150.0 mg/kg/injection, schedule: Q04DX003 (sc), vehicle: saline with Tween-80) -3 % of control; under setting [1], -19 % of control.

For the compound `CC(=O)Oc1ccccc1O`, the T/C reads like this: (dose: 75.0 mg/kg/injection, schedule: Q04DX003 (sc), vehicle: saline + Tween-80 + alcohol) 89 % of control; (dose: 150.0 mg/kg/injection, schedule: Q04DX003 (sc), vehicle: saline + Tween-80 + alcohol) 117 % of control; (dose: 600.0 mg/kg/injection, schedule: Q04DX003 (sc), vehicle: saline + Tween-80 + alcohol) 68 % of control.

In the case of `COc1ccc2c(NCCCCCCCCNc3c4ccccc4nc4cc(OC)ccc34)c3ccccc3nc2c1`, the T/C (dose: 8.0 mg/kg/injection, schedule: Q04DX003 (sc), vehicle: suspension in saline) was 68 % of control; the T/C (dose: 16.0 mg/kg/injection, schedule: Q04DX003 (sc), vehicle: suspension in saline) is 78 % of control; the T/C (dose: 32.0 mg/kg/injection, schedule: Q04DX003 (sc), vehicle: suspension in saline) is 104 % of control; the T/C (dose: 64.0 mg/kg/injection, schedule: Q04DX003 (sc), vehicle: suspension in saline) was 92 % of control.

Regarding `CCCCCCCCCCCCCCCCCCCCCC(=O)Nc1ccn(C2OC(CO)C(O)C2O)c(=O)n1` (centres undefined), the T/C reads like this: (dose: 300.0 mg/kg/injection, schedule: Q04DX003 (sc), vehicle: saline with Tween-80) 123 % of control; under setting [1], 87 % of control; (dose: 1200.0 mg/kg/injection, schedule: Q04DX003 (sc), vehicle: saline with Tween-80) 68 % of control; under setting [2], 84 % of control.

For the compound `c1ccc(OCC2CO2)c(OCC2CO2)c1` (centres undefined), the T/C runs as follows: (dose: 150.0 mg/kg/injection, schedule: Q04DX003 (ip), vehicle: saline with Tween-80) 95 % of control; (dose: 300.0 mg/kg/injection, schedule: Q04DX003 (ip), vehicle: saline with Tween-80) 99 % of control.

Take `Cc1c(N)nc([C@H](CC(N)=O)NC[C@H](N)C(N)=O)nc1C(=O)N[C@H](C(=O)N[C@H](C)[C@@H](O)CC(=O)N[C@H](C(=O)NC(O[C@@H]1O[C@@H](C)[C@@H](N)[C@@H](O)[C@H]1O)C(O)c1nc(-c2nc(C(=O)NCCCCN)cs2)cs1)[C@@H](C)O)[C@@H](O[C@@H]1O[C@@H](CO)[C@@H](O)[C@H](O)[C@@H]1O[C@H]1O[C@H](CO)[C@@H](O)[C@H](OC(N)=O)[C@@H]1O)c1c[nH]cn1` (some centres undefined): the T/C (dose: 4.0 mg/kg/injection, schedule: Q04DX003 (sc), vehicle: saline) was 120 % of control; the T/C (dose: 8.0 mg/kg/injection, schedule: Q04DX003 (sc), vehicle: saline) was 64 % of control; the T/C (dose: 16.0 mg/kg/injection, schedule: Q04DX003 (sc), vehicle: saline) is 64 % of control; the T/C (dose: 32.0 mg/kg/injection, schedule: Q04DX003 (sc), vehicle: saline) is 47 % of control.

Regarding `COC1C(C)OC(OC2CC(C)(O)Cc3cc4c(c(O)c32)C(=O)c2c(O)cc3c(c2C4=O)OC2OC3(C)C(O)C(N(C)C)C2O)C(OC)C1(C)OC` (centres undefined), the T/C (dose: 10.0 mg/kg/injection, schedule: Q04DX003 (sc), vehicle: Klucel (hydroxypropylcellulose) (HPC)) is 82 % of control; the T/C (dose: 20.0 mg/kg/injection, schedule: Q04DX003 (sc), vehicle: Klucel (hydroxypropylcellulose) (HPC)) was 94 % of control; the T/C (dose: 40.0 mg/kg/injection, schedule: Q04DX003 (sc), vehicle: Klucel (hydroxypropylcellulose) (HPC)) is 84 % of control; the T/C (dose: 80.0 mg/kg/injection, schedule: Q04DX003 (sc), vehicle: Klucel (hydroxypropylcellulose) (HPC)) is 76 % of control.

Take `CN1CCc2c(c3ccccc3c3ccccc23)C1`: the T/C reads like this: (dose: 150.0 mg/kg/injection, schedule: Q04DX003 (sc), vehicle: Klucel (hydroxypropylcellulose) (HPC)) 30 % of control; (dose: 300.0 mg/kg/injection, schedule: Q04DX003 (sc), vehicle: Klucel (hydroxypropylcellulose) (HPC)) 45 % of control.

With `N=c1c(C(=O)OCc2ccccc2)ncc(CCl)n1O`, the T/C is, setting by setting: under setting [1], 89 % of control; under setting [2], 72 % of control.

With `O=c1cnn(C2OC(CO)C(O)C2O)c(=O)[nH]1` (centres undefined), the T/C is 79 % of control (dose: 200.0 mg/kg/injection, schedule: Q01DX010 (sc), vehicle: saline) and 77 % of control (dose: 400.0 mg/kg/injection, schedule: Q01DX010 (sc), vehicle: saline).

In the case of `CC(=O)OCC1OC([S-])C(OC(C)=O)C(OC(C)=O)C1OC(C)=O.CC[PH+](CC)CC.CC[PH+](CC)CC.[Au].[Au]` (centres undefined), the T/C by setting is: (dose: 0.32 mg/kg/injection, schedule: Q04DX003 (sc), vehicle: Klucel (hydroxypropylcellulose) (HPC)) 88 % of control; (dose: 0.63 mg/kg/injection, schedule: Q04DX003 (sc), vehicle: Klucel (hydroxypropylcellulose) (HPC)) 112 % of control; (dose: 1.25 mg/kg/injection, schedule: Q04DX003 (sc), vehicle: Klucel (hydroxypropylcellulose) (HPC)) 100 % of control; (dose: 2.5 mg/kg/injection, schedule: Q04DX003 (sc), vehicle: Klucel (hydroxypropylcellulose) (HPC)) 87 % of control.

Consider `NC(=O)c1[nH]nc(C2OC(CO)C(O)C2O)c1O` (centres undefined), for which the T/C was 111 % of control (dose: 2.5 mg/kg/injection, schedule: Q04DX003 (sc), vehicle: saline) and 68 % of control (dose: 20.0 mg/kg/injection, schedule: Q04DX003 (sc), vehicle: saline).

With `[N-]=[N+]=CC(=O)CCC(=O)C=[N+]=[N-]`, the T/C (dose: 3.0 mg/kg/injection, schedule: Q01DX010 (sc), vehicle: DMSO) is -72 % of control; the T/C (dose: 6.0 mg/kg/injection, schedule: Q01DX010 (sc), vehicle: DMSO) was -42 % of control; the T/C (dose: 12.0 mg/kg/injection, schedule: Q01DX010 (sc), vehicle: DMSO) was 5 % of control; the T/C (dose: 15.0 mg/kg/injection, schedule: Q04DX003 (sc), vehicle: DMSO) is 6 % of control; the T/C (dose: 15.0 mg/kg/injection, schedule: Q04DX003 (sc), vehicle: saline) was 23 % of control; the T/C (dose: 30.0 mg/kg/injection, schedule: Q04DX003 (sc), vehicle: DMSO) is 3 % of control. The T/C was 16 % of control (dose: 30.0 mg/kg/injection, schedule: Q04DX003 (sc), vehicle: saline); 6 % of control (dose: 60.0 mg/kg/injection, schedule: Q04DX003 (sc), vehicle: saline); -13 % of control (dose: 120.0 mg/kg/injection, schedule: Q04DX003 (sc), vehicle: DMSO); 8 % of control (dose: 120.0 mg/kg/injection, schedule: Q04DX003 (sc), vehicle: saline).

As for `Cc1c2cc[n+](CCN3CCCCC3)cc2c(C)c2c1[nH]c1ccc(O)cc12`, the T/C reads like this: (dose: 25.0 mg/kg/injection, schedule: Q04DX003 (sc), vehicle: suspension in saline) 159 % of control; (dose: 50.0 mg/kg/injection, schedule: Q04DX003 (sc), vehicle: suspension in saline) 163 % of control; (dose: 100.0 mg/kg/injection, schedule: Q04DX003 (sc), vehicle: suspension in saline) 159 % of control.
